Format in all cases: biochemical
In one assay the target is T1, CG5171 (Drosophila melanogaster, UniProt Q9VM19).
T1 construct: gene Tpp; N-terminal His-tag (pET28a), E. coli BL21(DE3), Ni-NTA
T1 sequence (Q9VM19 1-273): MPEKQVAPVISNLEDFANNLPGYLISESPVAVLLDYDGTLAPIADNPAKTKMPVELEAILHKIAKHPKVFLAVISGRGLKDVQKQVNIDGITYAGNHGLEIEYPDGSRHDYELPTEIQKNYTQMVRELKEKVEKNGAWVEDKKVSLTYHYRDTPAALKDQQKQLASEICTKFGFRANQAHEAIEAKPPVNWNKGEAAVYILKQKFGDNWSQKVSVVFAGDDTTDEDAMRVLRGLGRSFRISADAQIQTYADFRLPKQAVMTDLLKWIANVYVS
In words: dephosphorylation; trehalose released determined with trehalase and glucose assay kit. The settings on record: 0.5 mM T6P; 5 mM MgCl2; PBS-type phosphate buffer pH 7.4; 30 °C; 0.02 nmol enzyme in 30 μl.

For another assay, the target named is T2, Tps1-TPP (Drosophila melanogaster, UniProt Q9Y119).
T2 construct: C-terminal TPP domain only (borders not in text), N-terminal His-tag (pET28a), E. coli BL21(DE3), Ni-NTA
Described as above. The settings on record: 0.5 mM T6P; 5 mM MgCl2; PBS-type phosphate buffer pH 7.4; 30 °C; 0.02 nmol enzyme in 30 μl.

The target in the next assay is T3, OtsB (Escherichia coli, UniProt P31678).
T3 construct: N-terminal His-tag (pET28a), E. coli BL21(DE3), Ni-NTA
Described as above. The settings on record: 0.5 mM T6P; 5 mM MgCl2; PBS-type phosphate buffer pH 7.4; 30 °C; 0.02 nmol enzyme in 30 μl.

A further assay concerns the target T4, cTreh (Drosophila melanogaster, UniProt A4UZR3).
T4 construct: gene Treh; cytoplasmic isoform without signal peptide, N-terminal His-tag (pET28a), E. coli BL21(DE3), Ni-NTA
T4 sequence (A4UZR3 1-560): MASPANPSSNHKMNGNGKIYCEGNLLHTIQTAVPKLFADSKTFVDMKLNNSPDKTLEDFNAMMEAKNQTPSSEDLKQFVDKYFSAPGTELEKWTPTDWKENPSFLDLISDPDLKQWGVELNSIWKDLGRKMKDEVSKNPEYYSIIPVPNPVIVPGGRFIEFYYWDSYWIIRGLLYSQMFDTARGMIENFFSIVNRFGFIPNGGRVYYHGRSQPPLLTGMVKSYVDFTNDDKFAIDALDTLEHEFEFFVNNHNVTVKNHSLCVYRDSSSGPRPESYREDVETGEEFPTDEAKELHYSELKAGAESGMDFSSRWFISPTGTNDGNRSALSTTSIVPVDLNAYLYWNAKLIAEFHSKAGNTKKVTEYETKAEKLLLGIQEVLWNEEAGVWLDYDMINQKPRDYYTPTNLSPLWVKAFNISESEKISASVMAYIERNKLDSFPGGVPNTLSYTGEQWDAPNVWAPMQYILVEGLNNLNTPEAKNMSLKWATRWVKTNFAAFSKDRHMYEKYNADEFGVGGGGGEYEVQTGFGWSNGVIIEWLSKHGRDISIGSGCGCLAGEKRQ
In words: trehalose hydrolysis; glucose released determined with glucose assay kit. The conditions noted are these: 5 μg trehalose; 0.12 pmol His-cTreh in 15 μl PBS; 30 °C, 2 h.

T3 sequence (P31678 whole entry): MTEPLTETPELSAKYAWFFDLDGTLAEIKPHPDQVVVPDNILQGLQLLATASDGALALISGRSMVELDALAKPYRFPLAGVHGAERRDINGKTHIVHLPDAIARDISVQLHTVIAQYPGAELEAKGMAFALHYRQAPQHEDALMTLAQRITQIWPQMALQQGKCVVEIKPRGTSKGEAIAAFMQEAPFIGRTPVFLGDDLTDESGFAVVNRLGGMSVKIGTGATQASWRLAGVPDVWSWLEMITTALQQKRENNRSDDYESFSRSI
T2 sequence (Q9Y119 entry or part of it): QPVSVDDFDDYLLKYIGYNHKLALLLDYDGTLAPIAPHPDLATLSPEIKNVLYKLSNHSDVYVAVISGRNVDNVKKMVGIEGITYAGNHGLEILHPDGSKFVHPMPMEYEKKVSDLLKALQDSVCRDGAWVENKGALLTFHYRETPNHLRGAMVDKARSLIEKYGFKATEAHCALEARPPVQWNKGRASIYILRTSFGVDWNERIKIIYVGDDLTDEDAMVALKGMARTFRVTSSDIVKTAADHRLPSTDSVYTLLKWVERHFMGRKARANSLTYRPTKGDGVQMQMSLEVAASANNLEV

Regarding `O=P(O)(O)OC[C@H]1O[C@H](O[C@H]2O[C@H](CO)[C@@H](O)[C@H](O)[C@H]2O)[C@H](O)[C@@H](O)[C@@H]1O` [trehalose-6-phosphate], the “dephosphorylation; trehalose released determined with trehalase and glucose assa” value on CG5171 was “recombinant Tps1-TPP and CG5171, but not CG5177, dephosphorylated T6P under our experimental conditions”; on Tps1-TPP, “recombinant Tps1-TPP and CG5171, but not CG5177, dephosphorylated T6P under our experimental conditions”; at OtsB it was “Tps1-TPP showed a lower activity than CG5171 and OtsB in vitro”.

With `OC[C@H]1O[C@H](O[C@H]2O[C@H](CO)[C@@H](O)[C@H](O)[C@H]2O)[C@H](O)[C@@H](O)[C@@H]1O` [trehalose], at cTreh, the “trehalose hydrolysis; glucose released determined with glucose assay kit” value is listed as “The recombinant cTreh exhibited a specific breakdown of trehalose to produce glucose in vitro”.
